Experimental data reported in the OPERA property sets (Mansouri et al. 2018).

`Clc1cccc(N2CCNCC2)c1` and `Clc1ccc(N2CCNCC2)cc1` are within 0.2 log units of each other in logP: 2.11 for the first, 2.01 for the second.

`c1csc(N2CCNCC2)n1` and `c1cnc(N2CCNCC2)nc1` are within 0.2 log units of each other in logP: 0.61 for the first, 0.49 for the second.

Compared with `Fc1ccnc(N2CCNCC2)n1`, `c1ccc(N2CCNCC2)nc1` is lower in logP: 0.97 for the first, 0.74 for the second.

Compared with `FC(F)(F)c1cccc(N2CCNCC2)c1`, `c1ccc(N2CCNCC2)cc1` is lower in logP: 2.43 for the first, 1.1 for the second.

`Clc1ccccc1N1CCNCC1` and `Cc1ccccc1N1CCNCC1` are within 0.2 log units of each other in logP: 2.13 for the first, 2.14 for the second.

Going from `c1ccc2c(N3CCNCC3)nsc2c1` to `COc1ccccc1N1CCNCC1`, the logP falls from 2.14 to 1.67.

Compared with `Fc1ccc(N2CCNCC2)cc1`, `c1ccc2nc(N3CCNCC3)ccc2c1` is higher in logP: 1.28 for the first, 2.04 for the second.
